# Measurements reported in patent US20050059032A1, “Methods & compositions relating to drug-induced arrhythmia” (Pfizer Inc, priority 2002, published 2005).
# Test system: patients with congestive heart failure or recent myocardial infarction
# Conditions: human, in vivo
# Description: Genomic DNA samples were obtained from the blood samples of patients enrolled in the DIAMOND study (Danish Investigations of Arrhythmia and Mortality on Dofetilide) or a clinical protocol similar in nature to the DIAMOND Study. These studies focused on the effects of Dofetilide on two populations of patients, one with congestive heart failure and one with recent myocardial infarction associated with left ventricular dysfunction (ejection fraction <35%) (Moller, M., (1996) Lancet, 348(9041):1597-8; Moller, M. et al., (1997) Congest Heart Fail., 7(3):146-150). DNA samples were obtained from 105 patients in total. Of the 105 patients, 7 developed torsade de pointes (TdP) upon treatment with Dofetilide while the remaining 98 patients responded to treatment without developing TdP as a side effect.
structure (smiles),measurement,value
CN(CCOc1ccc(NS(C)(=O)=O)cc1)CCc1ccc(NS(C)(=O)=O)cc1 [Dofetilide],patients who developed torsade de pointes (TdP) upon treatment,7
